{"source": "patent US20110250273A1", "about": "“COMPOSITIONS OF PROTON PUMP INHIBITORS, KITS AND METHODS OF THEIR USE TO TREAT DIABETES” (Melford Scientific, LLC, priority 2008, published 2011)", "type_in_all_cases": "in vivo, human", "key": {"[1]": {"test_system": "Type II diabetic patients", "assay": "Population comparison of HgbA1c in treated diabetic patients with or without a PPI (Examples 1-3)", "conditions": "Example 2; 53 Metformin only patients, 11 Metformin plus proton pump inhibitor", "experimental": "For a population of 347 Type II diabetic patients with recent HgbA1c measurements of an average 7.53% with a standard deviation of +/−1.77%. All were treated using insulin injections and/or a variety of oral agents, such as the above noted metformin, and other anti-diabetic medicines. The patients were treated for differing periods of time ranging from 3 months to 30 years.\nThe two groups were compared using a two-Sample T test that is a classical statistical test. […] The difference between the two groups was 0.61%, which is a significant difference with a p-value of 0.002.\n64 total patients, of which 53 patients that were treated using only Metformin for the treatment of diabetes and 11 took Metformin and a proton pump inhibitor.\nIn this population, 79 patients were dosed with a sulfonylurea, either alone or in combination with metformin and/or pioglitazone or rosiglitazone. These 79 patients were not provided with insulin or sitagliptin."}, "[2]": {"test_system": "Type II diabetic patients", "assay": "2 hour glucose tolerance test during 24 week omeprazole trial (Example 4)", "conditions": "for C-Peptide 1 hour / C-Peptide 2 hours / Glucose 1 hour / Glucose 2 hours / Insulin 1 hour / Insulin 2 hours: after 75 g glucose", "experimental": "(§1) Seven Type II diabetic patients were administered omeprazole for 24 weeks and data was obtained from fasting and following a 2 hour glucose tolerance test at 8 week intervals and compared to baseline values. Statistical comparisons and analysis were performed with a commercial program, Analyse-it, version 2.20.\n(§2) Subjects: Five males, 2 females, age range 42-68 years, mean age 54+10 years. BMI's ranged from 31 to 49, mean 38+6. All subjects had co-morbid hypertension, four had co-morbid dyslipidemia and two had co-morbid hypothyroidism. All were stable on oral diabetes medications with 7/7 on metformin, 6/7 on pioglitazone (Actos), 4/7 on a DPP-4 inhibitor, sitagliptan (Januvia) and 4/7 on a Sulfonylurea. All subjects received a physical exam, review of systems and a baseline EKG prior to initiating the PPI trial. Subjects were then seen and evaluated at monthly intervals interviewed for adverse events and monitored for medication compliance and maintenance of daily blood glucose logs.\n(§3) Design: All subjects continued on their respective oral antidiabetic medications throughout the study. Baseline data was obtained in a fasting state after an overnight fast. Subjects were then administered 75 g of glucose and blood samples obtained at 1 and 2 hours. Following collection of baseline data, subjects were administered Omeprazole Delayed-Release Capsules USP, (Apotex Inc., Toronto, Canada M9L 179), 40 mg orally twice daily and blood samples again obtained after 8, and 16 weeks. Medications were not taken on the mornings of testing. Following the 16 week sample collection, subjects were increased to 80 mg Omeprazole twice daily and blood samples again obtained at 24 weeks.\n(§4) Measurements: Helicobacter Pylori IgG was obtained on each subject as a baseline as were Hemoglobin A1c and fasting Gastrin. Each 2 hour glucose tolerance test provided fasting glucose, insulin and c-peptide as well as 1 hour and 2 hour glucose and stimulated insulin and c-peptide. All measurements were obtained through a commercial laboratory using standardized analytical methods, Quest Diagnostics Laboratory, 5850 Rogerdale Road, Houston, Tex. 77072."}, "[3]": {"test_system": "Type II diabetic patients", "assay": "Hemoglobin A1c, Beta cell area and plasma gastrin during 24 week omeprazole trial (Example 4)", "conditions": "for Beta Cell Area, %: calculated using the 2 hour glucose tolerance value by the method of Meier et al", "experimental": "as §1, §2, §3, §4\nTable 2 summarizes the effects of PPI administration on plasma Gastrin, Hemoglobin A1c and % Beta Cell area (calculated using the 2 hour glucose tolerance value by the method of Meier et al, Diabetes, vol 58, 1595-1603, 2009). […] Hemoglobin A1c, a measure of average blood glucose, was reduced by approximately 0.9% in this cohort, consistent with improved diabetes control (FIG. 5). Finally, the calculated Beta cell mass increased across the treatment period by approximately 25%."}, "[4]": {"test_system": "Type II diabetic patients", "assay": "Tolerability / adverse events in 24 week omeprazole trial (Example 4)", "conditions": "all doses (40 mg and 80 mg twice daily), 24 weeks", "description": "as §2, §3"}, "[5]": {"conditions": "8 weeks PPI, Omeprazole 40 mg orally twice daily"}, "[6]": {"conditions": "16 weeks PPI, Omeprazole 40 mg orally twice daily"}, "[7]": {"conditions": "24 weeks PPI, increased to 80 mg Omeprazole twice daily after week 16"}}, "note": "Marks after values point to notes of the source that are not given here."}
{"smiles": "CN(C)C(=N)N=C(N)N", "note": "[Metformin]", "values": [{"measurement": "Average HgbA1c", "setting": "[1]", "result": 7.27, "unit": "%"}]}
{"smiles": "COc1ccc2[nH]c([S+]([O-])Cc3ncc(C)c(OC)c3C)nc2c1", "note": "(centres unmarked) [Omeprazole, 5-methoxy-2-[(4-methoxy-3,5-dimethyl-2-pyridinyl)methyl]sulfinyl-1H-benzimidazole]", "values": [{"measurement": "C-Peptide Fasting", "setting": "[2]; [5]", "result": 4.0}, {"measurement": "Glucose Fasting", "setting": "[2]; [5]", "result": 127}, {"measurement": "Insulin Fasting", "setting": "[2]; [5]", "result": 13.6}, {"measurement": "C-Peptide 1 hour", "setting": "[2]; [5]", "result": 7.1}, {"measurement": "C-Peptide 2 hours", "setting": "[2]; [5]", "result": "8.6***"}, {"measurement": "Glucose 1 hour", "setting": "[2]; [5]", "result": "235#"}, {"measurement": "Glucose 2 hours", "setting": "[2]; [5]", "result": 226}, {"measurement": "Insulin 1 hour", "setting": "[2]; [5]", "result": 38.7}, {"measurement": "Insulin 2 hours", "setting": "[2]; [5]", "result": 29.9}, {"measurement": "C-Peptide Fasting", "setting": "[2]; [6]", "result": 3.4}, {"measurement": "Glucose Fasting", "setting": "[2]; [6]", "result": 136}, {"measurement": "Insulin Fasting", "setting": "[2]; [6]", "result": 12}, {"measurement": "C-Peptide 1 hour", "setting": "[2]; [6]", "result": 6.0}, {"measurement": "C-Peptide 2 hours", "setting": "[2]; [6]", "result": "7.9#"}, {"measurement": "Glucose 1 hour", "setting": "[2]; [6]", "result": "206*"}, {"measurement": "Glucose 2 hours", "setting": "[2]; [6]", "result": "229**"}, {"measurement": "Insulin 1 hour", "setting": "[2]; [6]", "result": 24.7}, {"measurement": "Insulin 2 hours", "setting": "[2]; [6]", "result": 36.1}, {"measurement": "C-Peptide Fasting", "setting": "[2]; [7]", "result": 3.6}, {"measurement": "Glucose Fasting", "setting": "[2]; [7]", "result": 147}, {"measurement": "Insulin Fasting", "setting": "[2]; [7]", "result": 10.9}, {"measurement": "C-Peptide 1 hour", "setting": "[2]; [7]", "result": 5.8}, {"measurement": "C-Peptide 2 hours", "setting": "[2]; [7]", "result": "7.9+"}, {"measurement": "Glucose 1 hour", "setting": "[2]; [7]", "result": 251}, {"measurement": "Glucose 2 hours", "setting": "[2]; [7]", "result": 258}, {"measurement": "Insulin 1 hour", "setting": "[2]; [7]", "result": 25}, {"measurement": "Insulin 2 hours", "setting": "[2]; [7]", "result": 34}, {"measurement": "1 and 2 hour c-peptide secretion", "setting": "[2]; after PPI administration", "result": "increased"}, {"measurement": "Fasting insulin levels", "setting": "[2]; after PPI administration", "result": "unchanged"}, {"measurement": "Stimulated insulin secretion", "setting": "[2]; at both 1 and 2 hours, after PPI administration", "result": "increased"}, {"measurement": "Maximum glucose excursion versus baseline", "setting": "[2]; at both 1 and 2 hours, 8 and 16 weeks, statistically significant at 16 weeks", "result": "reduced"}, {"measurement": "Fasting blood glucose versus baseline", "setting": "[2]; at both 8 and 16 weeks", "result": "reduced"}, {"measurement": "Percent hemoglobin A1c reduction from baseline", "setting": "[3]; 8, 16 and 24 weeks after taking PPI, FIG. 5", "result": "at least 0.6%"}, {"measurement": "Hemoglobin A1c, %", "setting": "[3]; [5]", "result": 7.7, "unit": "%"}, {"measurement": "Plasma Gastrin", "setting": "[3]; [5]", "result": 207, "unit": "pg/mL"}, {"measurement": "Beta Cell Area, %", "setting": "[3]; 8 weeks PPI", "result": 0.46, "unit": "%"}, {"measurement": "Hemoglobin A1c, %", "setting": "[3]; [6]", "result": 7.8, "unit": "%"}, {"measurement": "Plasma Gastrin", "setting": "[3]; [6]", "result": 174, "unit": "pg/mL"}, {"measurement": "Beta Cell Area, %", "setting": "[3]; 16 weeks PPI", "result": 0.51, "unit": "%"}, {"measurement": "Beta Cell Area, %", "setting": "[3]; 24 weeks PPI", "result": 0.40, "unit": "%"}, {"measurement": "Hemoglobin A1c, %", "setting": "[3]; [7]", "result": 7.9, "unit": "%"}, {"measurement": "Plasma Gastrin", "setting": "[3]; [7]", "result": 232, "unit": "pg/mL"}, {"measurement": "Calculated Beta cell mass increase", "setting": "[3]; across the treatment period", "result": "approximately 25%"}, {"measurement": "Change in percent hemoglobin A1c", "setting": "[3]; all patients, statistically significant, FIG. 1", "result": "decrease"}, {"measurement": "Hemoglobin A1c reduction", "setting": "[3]; in this cohort of seven patients, versus baseline", "result": "approximately 0.9%"}, {"measurement": "Plasma gastrin versus baseline", "setting": "[3]; long term PPI administration, serum levels gradually reduced over time", "result": "markedly elevated"}, {"measurement": "Slope of linear best fit of hemoglobin A1c", "setting": "[3]; seven type II diabetics, 24 week trial, FIG. 1", "result": "−0.021 % (HgbA1c) per week"}, {"measurement": "Adverse events", "setting": "[4]", "result": "no reports of adverse events"}, {"measurement": "Tolerability", "setting": "[4]", "result": "well tolerated"}]}
